Results: PubChem BioAssay AID466 (The Scripps Research Institute Molecular Screening Center, 2006)
Activity calls are given as the source filed them. The rule behind the calls is not given here.

Biological target: Sphingosine 1-phosphate receptor 1 (Homo sapiens) (UniProt P21453)
Assay: potentiators of S1P1 agonist response, dose response, cell-based, potentiator mode, 60K MLSMR set (AID 466)
Details: S1P1 cell assay, potentiation of agonist response

Sequence of Sphingosine 1-phosphate receptor 1 (Homo sapiens) (P21453 whole entry, looked up): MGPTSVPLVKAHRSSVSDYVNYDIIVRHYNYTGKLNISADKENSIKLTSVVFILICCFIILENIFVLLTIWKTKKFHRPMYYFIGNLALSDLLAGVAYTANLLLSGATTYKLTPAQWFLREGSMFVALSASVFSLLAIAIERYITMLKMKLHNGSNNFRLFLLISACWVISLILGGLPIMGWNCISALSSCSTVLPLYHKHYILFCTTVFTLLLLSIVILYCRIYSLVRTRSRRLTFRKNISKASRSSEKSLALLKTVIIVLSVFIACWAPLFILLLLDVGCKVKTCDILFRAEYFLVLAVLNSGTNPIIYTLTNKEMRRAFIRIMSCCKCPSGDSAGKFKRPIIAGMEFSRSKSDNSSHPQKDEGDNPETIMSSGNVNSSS

SMILES | EC50
CCC(=NCCOc1ccc(Cl)cc1)c1c(O)n(C)c(=O)n(C)c1=O | 5.34 µM
COc1ccc(/C(O)=C2/C(=O)C(=O)N(CC3CCCO3)C2c2cccc(OC)c2)cc1 (stereo not given) | > 95 µM (inactive)
CC1=C(C(=O)OCc2ccc3c(c2)OCO3)C(c2ccccc2)NC(=O)N1 (stereo not given) | 3.42 µM
Cc1ccc2[nH]c3c(N4CCCCCC4)ncnc3c2c1 | 4.14 µM
COc1ccc(/C=N/O)cc1COc1ccc(NC(C)=O)cc1 | > 95 µM (inactive)
FC(F)(F)c1ccc(N2CCN(c3cc(-c4ccccc4)nc4ncnn34)CC2)nc1 | inactive
CCC(=NCc1ccc2c(c1)OCO2)c1c(O)n(C2CCCCC2)c(=O)[nH]c1=O | 8.66 µM
CC(=O)Oc1ccc(N2C(=O)C3C(C2=O)C2(C)C=CC3(C)O2)cc1 (stereo not given) | inactive
Cc1nn(Cc2ccc(Cl)c(Cl)c2)c(C)c1NC(=O)c1cc(C2CC2)on1 | inactive
COC(=O)CC1SC(=O)NC1=Nc1ccccc1 (stereo not given) | > 95 µM (inactive)
COc1ccc(N2C(=O)CC(Sc3ncn[nH]3)C2=O)c(OC)c1 (stereo not given) | inactive
Cc1nn(Cc2ccc(Cl)c(Cl)c2)c(C)c1NC(=O)c1cc(-c2ccco2)on1 | 5.57 µM
COc1ccc(N=c2scc(-c3ccc(S(=O)(=O)N4CCOCC4)cc3)n2CCCO)cc1 | inactive
CC1(C)CC(=O)C(C=Nc2ccc3[nH]ncc3c2)=C(O)C1 | 6.01 µM
CC(C)Cn1c(N)c(C(=O)CSc2ccc3c(c2)OCCO3)c(=O)n(C)c1=O | inactive
Cc1cc(N2CCOCC2)nc(NCc2ccccc2)n1 | inactive
O=C(C1CCN(S(=O)(=O)c2cccc3cccnc23)CC1)N1CCN(c2ccc(Cl)cc2)CC1 | inactive
Cn1nc(CC(=O)Nc2ccc3c(c2)OCCO3)c2ccccc2c1=O | 5.94 µM

SMILES | EC50
CCOC(=O)C1CCN(c2ncnc3c2oc2ccccc23)CC1 | inactive
C/C(N)=C(/C#N)C(=O)CSc1nnc(SCc2ccc(Cl)cc2)s1 | 9.63 µM
CC(C)c1ccc(OCc2nc(-c3ccccn3)no2)c(Br)c1 | 4.43 µM
CNc1oc(-c2ccc(OCc3ccccc3)cc2)nc1C#N | 3.24 µM
Cc1ccc(NC(=O)c2cc(-c3ccco3)on2)cc1C | 5.02 µM
C/C(N)=C(/C#N)C(=O)CSc1nc2cc(Cl)ccc2s1 | inactive
CCOc1ccc(C(C)=O)cc1N1C(=O)C2C3C=CC(O3)C2C1=O (stereo not given) | inactive
CC(C)c1ccc2oc(-c3cc(N)ccc3O)nc2c1 | 9.39 µM
O=C1C2C3C=CC(CO)(O3)C2C(=O)N1c1ccccc1-c1ccccc1 (stereo not given) | 6.82 µM
Cc1[nH]nc2c1C1(C(=O)N(Cc3ccc(Cl)cc3)c3ccccc31)C(C#N)=C(N)O2 (stereo not given) | inactive
c1ccc2c(c1)CCN(c1ncnc3c1[nH]c1ccccc13)C2 | 1.18 µM
CCOC(=O)c1cccc2c1-c1ccccc1/C2=N/O | inactive
NC(=O)c1ccc(OCC(F)(F)C(F)(F)C(F)(F)C(F)(F)C(F)(F)C(F)F)cc1 | 7.96 µM
CCC(=NC(C)c1ccccc1)c1c(O)n(C)c(=O)n(C)c1=O (stereo not given) | inactive
CCCCc1ccc(C2C(C#N)=C(N)SC(N)=C2C#N)s1 | inactive
CC(=O)c1ccc(NC(=O)N2CCN(c3cccc(Cl)c3)CC2)cc1 | 9.84 µM
CC1=C(C(=O)OCc2ccc3c(c2)OCO3)C(c2ccc(F)cc2)NC(=O)N1 (stereo not given) | 0.631 µM
